# In patent publication US4388237A, “6(1-Piperazinyl), piperidino and (1(homopiperazinyl)11-cyanomethylene morphanthridines” (BASF Aktiengesellschaft, priority 1979, dated 1983):
# Entries after “also recorded” stand apart in the source; their conditions may differ. Counter-ions that a name gives are not always drawn.
# Tests used:
# Assay type in all cases: in vivo
# [1] = test system: female NMRI mice; test: Analgesic effect (D'Amour and Smith tail-flick method); conditions: for Analgesic effect ED 100%: intraperitoneal, mice, dose lengthening tail-flick reaction time by 100%, 30 minutes after administration; for Analgesic effect R.A. (relative activity): relative to Clozapin (1.00); for Analgesic effect (in words): discussion of Table 1
# Procedure: The analgesic effect is determined by means of the D'Amour and Smith (1941) tail-flick method. In this, the substances are administered intraperitoneally to groups of 10 female NMRI mice. The pain reaction is triggered 30 minutes after administration. The reaction time, until the tail is flicked out of the way after exposure to a focused light beam, is measured.
# [2] = test system: female NMRI mice; test: Sedative effect (orientation hypermotility); conditions: for Sedative effect R.A. (relative activity): relative to Clozapin (1.00); for Sedative effect (in words): discussion of Table 1
# Procedure: The substances are administered orally to groups of 4×3 or 8×3 female NMRI mice. The orientation hypermotility induced by a new environment is determined photoelectrically, 30 minutes after the administration of the substances, for a period of 30 minutes.
# [3] = test system: female Sprague-Dawley rats; test: Apomorphine-antagonistic effect (jaw movements, mandibulogram); conditions: for Apomorphine antagonism R.A. (relative activity): relative to Clozapin (1.00)
# Procedure: 4. Apomorphine-antagonistic effect
# Jaw motions are triggered in groups of 4-6 female Sprague-Dawley rats by subcutaneous administration of 1.5 mg of apomorphine/kg, and are recorded by means of implanted electrodes (Kubacki mandibulogram, 1978) .
# [4] = test system: female NMRI mice; test: Anti-cholinergic effect (protection against death from Physostigmin)
# Procedure: 3. Anti-cholinergic effect
# A lethal dose (0.825 mg/kg) of Physostigmin is administered subcutaneously to groups of 10 female NMRI mice. The test substances are administered orally 30 minutes before administering the Physostigmin.
compound,measurement,setting,value
"Cc1ccc2c(c1)N=C(N1CCN(C)CC1)c1ccccc1C2=CC#N (mixture of isomers) [13a cis-trans M, cis,trans-3-Methyl-11-cyanomethylene-6-(4-methylpiperazin-1-yl)-morphanthridine]",Analgesic effect ED 100%,[1],5.17 mg/kg
"Cc1ccc2c(c1)C(=CC#N)c1ccccc1C(N1CCN(C)CC1)=N2 (mixture of isomers) [13b cis-trans M, cis,trans-2-Methyl-11-cyanomethylene-6-(4-methyl-piperazin-1-yl)-morphanthridine]",Analgesic effect ED 100%,[1],10 mg/kg
"CCN1CCN(C2=Nc3ccccc3C(=CC#N)c3ccccc32)CC1 (mixture of isomers) [31 cis-trans M, cis,trans-11-Cyanomethylene-6-(4-ethyl-piperazin-1-yl)-morphanthridine]",Analgesic effect ED 100%,[1],> 10 mg/kg
"N#CC=C1c2ccccc2N=C(N2CCCNCC2)c2ccccc21 (mixture of isomers) [32 cis-trans M, cis,trans-11-Cyanomethylene-6-homopiperazin-1-yl-morphanthridine.HCl.H2 O]",Sedative effect R.A. (relative activity),[2],> 0.22
same,Analgesic effect ED 100%,[1],46.4 mg/kg
same,Analgesic effect R.A. (relative activity),[1],0.04
same,Apomorphine antagonism R.A. (relative activity),[3],< 0.08
"N#CC=C1c2ccccc2N=C(NCCN2CCCCC2)c2ccccc21 (mixture of isomers) [38 cis-trans M, cis,trans-11-Cyanomethylene-6-(2-piperidin-1-yl-ethylamino)-morphanthridine.1/2H2 O]",Sedative effect R.A. (relative activity),[2],2.94
same,Analgesic effect ED 100%,[1],> 10 mg/kg
same,Apomorphine antagonism R.A. (relative activity),[3],0.17
"C[N+]1([O-])CCN(C2=Nc3ccccc3C(=CC#N)c3ccccc32)CC1 (mixture of isomers) [67 cis-trans M, cis,trans-11-Cyanomethylene-6-(4-methyl-4-oxypiperazin-1-yl)-morphanthridine.2H2 O]",Sedative effect R.A. (relative activity),[2],0.33
same,Analgesic effect ED 100%,[1],> 46.4 mg/kg
same,Analgesic effect R.A. (relative activity),[1],< 0.04
same,Apomorphine antagonism R.A. (relative activity),[3],0.09
"CN1CCN(C2=Nc3ccccc3/C(=C/C#N)c3ccccc32)CC1 [1 cis-isomer, cis-11-cyanomethylene-6-(4-methylpiperazin-1-yl)-morphanthridine]",Analgesic effect ED 100%,[1],31.6 mg/kg
same,Anti-cholinergic effect (in words),"[4]; discussion of Table 1, Physostigmin antagonism",approximately comparable anti-cholinergic effect
"CN1CCN(C2=Nc3ccccc3C(=CC#N)c3ccccc32)CC1 [1 cis-trans M, cis- and trans-11-Cyanomethylene-6-(4-methyl-piperazin-1-yl)-morphanthridine]",Sedative effect (in words),[2]; listed as Example 1 (cis-trans mixture),relatively strong sedative effects; also recorded: more strongly sedative
same,Analgesic effect (in words),[1],not analgesically active
same,Analgesic effect ED 100%,[1],46.4 mg/kg
same,ED50,"[4]; Mus musculus, read-out: Anti-cholinergic effect ED 50%, oral, 30 minutes before Physostigmin 0.825 mg/kg subcutaneous, mice, dose protecting 50% of the animals against death",6.26 mg/kg
same,Apomorphine-antagonistic effect (in words),[3]; discussion of Table 1,somewhat weaker than that of Clozapin
"CN1CCN(C2=Nc3ccccc3/C(=C\C#N)c3ccccc32)CC1 [1 trans-isomer, trans-11-cyanomethylene-6-(4-methyl-piperazin-1-yl)-morphanthridine]",Analgesic effect ED 100%,[1],> 21.5 mg/kg
"Cc1ccc2c(c1)N=C(N1CCN(C)CC1)c1ccccc1/C2=C\C#N [13a cis-isomer, cis-3-methyl-11-cyanomethylene-6-(4-methyl-piperazin-1-yl)-morphanthridine]",Sedative effect (in words),[2],responsible for the strong sedative and strong analgesic effects
same,Analgesic effect (in words),[1],An analgesic effect is found; also recorded: responsible for the strong sedative and strong analgesic effects
same,Analgesic effect ED 100%,[1],0.74 mg/kg
"Cc1ccc2c(c1)N=C(N1CCN(C)CC1)c1ccccc1/C2=C/C#N [13a trans-isomer, trans-3-methyl-11-cyanomethylene-6-(4-methylpiperazin-1-yl)-morphanthridine]",Analgesic effect ED 100%,[1],68.1 mg/kg
"CCN1CCN(C2=Nc3ccccc3/C(=C\C#N)c3ccccc32)CC1 [31 trans-isomer, trans-11-cyanomethylene-6-(4-ethyl-piperazin-1-yl)-morphanthridine]",Analgesic effect ED 100%,[1],> 46.4 mg/kg
"C[N+]1([O-])CCN(C2=Nc3ccccc3/C(=C/C#N)c3ccccc32)CC1 [67 cis-isomer, cis-11-cyanomethylene-6-(4-methyl-4-oxy-piperazin-1-yl)-morphanthridine]",Sedative effect R.A. (relative activity),[2],0.26
same,Analgesic effect ED 100%,[1],> 46.4 mg/kg
same,Analgesic effect R.A. (relative activity),[1],< 0.04
same,Apomorphine antagonism R.A. (relative activity),[3],< 0.08
"C[N+]1([O-])CCN(C2=Nc3ccccc3/C(=C\C#N)c3ccccc32)CC1 [67 trans-isomer, t rans-11-cyanomethylene-6-(4-methyl-4-oxy-piperazin-1-yl)-morphanthridine]",Sedative effect R.A. (relative activity),[2],0.04
same,Analgesic effect ED 100%,[1],> 100 mg/kg
same,Analgesic effect R.A. (relative activity),[1],< 0.02
same,Apomorphine antagonism R.A. (relative activity),[3],0.32
"CN1CCN(C2=Nc3cc(Cl)ccc3Nc3ccccc32)CC1 [Clozapin, reference compound]",Sedative effect R.A. (relative activity),[2],1.00
same,Analgesic effect ED 100%,[1],2.08 mg/kg
same,Analgesic effect R.A. (relative activity),[1],1.00
same,Apomorphine antagonism R.A. (relative activity),[3],1.00
"CN1CCN(C2=Nc3ccccc3Cc3ccccc32)CC1 [Perlapin, reference compound]",Sedative effect R.A. (relative activity),[2],2.31
same,Analgesic effect R.A. (relative activity),[1],< 0.10
same,Apomorphine antagonism R.A. (relative activity),[3],0.37
